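48-hour exposure; five concentrations; linearly interpolated endpoints. At the GI50, growth is halved.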 The source made the active and inactive calls. Rule as the data show it: active = GI50 up to about 1.1 µM and inactive = higher.
Assays:
Assay in all cases: NCI tumour cell line growth inhibition, 48 h
TK-10 = test system: TK-10
LXFL 529 = test system: LXFL 529
SNB-78 = test system: SNB-78
SK-MEL-28 = test system: SK-MEL-28
ACHN = test system: ACHN
U-251 = test system: U-251
HL-60 = test system: HL-60
SNB-75 = test system: SNB-75
UACC-257 = test system: UACC-257
UO-31 = test system: UO-31
NCI-H460 = test system: NCI-H460
M19-MEL = test system: M19-MEL
KM12 = test system: KM12
MOLT-4 = test system: MOLT-4
XF498 = test system: XF498
HOP-18 = test system: HOP-18
HCT-116 = test system: HCT-116
DLD-1 = test system: DLD-1
SF-268 = test system: SF-268
SNB-19 = test system: SNB-19
OVCAR-3 = test system: OVCAR-3
A549 = test system: A549
SF-539 = test system: SF-539
DMS-273 = test system: DMS-273
SW-620 = test system: SW-620
HT-29 = test system: HT-29
NCI-H522 = test system: NCI-H522
OVCAR-8 = test system: OVCAR-8
RPMI-8226 = test system: RPMI-8226
HCC 2998 = test system: HCC 2998
EKVX = test system: EKVX
OVCAR-5 = test system: OVCAR-5
A498 = test system: A498
HOP-92 = test system: HOP-92
IGROV-1 = test system: IGROV-1
SK-OV-3 = test system: SK-OV-3
K562 = test system: K562
NCI-H23 = test system: NCI-H23
SF-295 = test system: SF-295
RXF 393 = test system: RXF 393
DMS-114 = test system: DMS-114
HOP-62 = test system: HOP-62
CCRF-CEM = test system: CCRF-CEM
LOX IMVI = test system: LOX IMVI
KM-20L2 = test system: KM-20L2
COLO 205 = test system: COLO 205
NCI-H226 = test system: NCI-H226
SK-MEL-5 = test system: SK-MEL-5
CAKI-1 = test system: CAKI-1
Malme-3M = test system: Malme-3M
SR = test system: SR
OVCAR-4 = test system: OVCAR-4
M14 = test system: M14
UACC-62 = test system: UACC-62
SK-MEL-2 = test system: SK-MEL-2
HCT-15 = test system: HCT-15
SN12C = test system: SN12C
786-0 = test system: 786-0

SMILES: CC(c1ccccc1)/[N+]([O-])=C/c1ccccc1 (stereo unspecified)
- GI50 (TK-10): > 100 µM (inactive)
- GI50 (LXFL 529): > 100 µM (inactive)
- GI50 (SNB-78): > 100 µM (inactive)
- GI50 (SK-MEL-28): > 100 µM (inactive)
- GI50 (ACHN): > 100 µM (inactive)
- GI50 (U-251): > 100 µM (inactive)
- GI50 (HL-60): > 100 µM (inactive)
- GI50 (SNB-75): > 100 µM (inactive)
- GI50 (UACC-257): > 100 µM (inactive)
- GI50 (UO-31): > 100 µM (inactive)
- GI50 (NCI-H460): > 100 µM (inactive)
- GI50 (M19-MEL): > 100 µM (inactive)
- GI50 (KM12): > 100 µM (inactive)
- GI50 (MOLT-4): > 100 µM (inactive)
- GI50 (XF498): > 100 µM (inactive)
- GI50 (HOP-18): 34.9 µM (inactive)
- GI50 (HCT-116): > 100 µM (inactive)
- GI50 (DLD-1): > 100 µM (inactive)
- GI50 (SF-268): > 100 µM (inactive)
- GI50 (SNB-19): > 100 µM (inactive)
- GI50 (OVCAR-3): > 100 µM (inactive)
- GI50 (A549): > 100 µM (inactive)
- GI50 (SF-539): > 100 µM (inactive)
- GI50 (DMS-273): > 100 µM (inactive)
- GI50 (SW-620): > 100 µM (inactive)
- GI50 (HT-29): > 100 µM (inactive)
- GI50 (NCI-H522): > 100 µM (inactive)
- GI50 (OVCAR-8): > 100 µM (inactive)
- GI50 (RPMI-8226): > 100 µM (inactive)
- GI50 (HCC 2998): > 100 µM (inactive)
- GI50 (EKVX): > 100 µM (inactive)
- GI50 (OVCAR-5): > 100 µM (inactive)
- GI50 (A498): > 100 µM (inactive)
- GI50 (HOP-92): > 100 µM (inactive)
- GI50 (IGROV-1): > 100 µM (inactive)
- GI50 (SK-OV-3): > 100 µM (inactive)
- GI50 (K562): > 100 µM (inactive)
- GI50 (NCI-H23): > 100 µM (inactive)
- GI50 (SF-295): > 100 µM (inactive)
- GI50 (RXF 393): > 100 µM (inactive)
- GI50 (DMS-114): > 100 µM (inactive)
- GI50 (HOP-62): > 100 µM (inactive)
- GI50 (CCRF-CEM): > 100 µM (inactive)
- GI50 (LOX IMVI): > 100 µM (inactive)
- GI50 (KM-20L2): > 100 µM (inactive)
- GI50 (COLO 205): > 100 µM (inactive)

SMILES: C=C1C(=O)OC2/C=C(\C(=O)O)CC/C=C(\C)CC(OC(=O)/C=C(\C)CC)C12 (stereo unspecified)
- GI50 (TK-10): 34.6 µM (inactive)
- GI50 (LXFL 529): 16.9 µM (inactive)
- GI50 (SNB-78): 23 µM (inactive)
- GI50 (SK-MEL-28): 18.8 µM (inactive)
- GI50 (ACHN): 17 µM (inactive)
- GI50 (U-251): 17 µM (inactive)
- GI50 (NCI-H226): 17.9 µM (inactive)
- GI50 (HL-60): 72.6 µM (inactive)
- GI50 (SK-MEL-5): 18.8 µM (inactive)
- GI50 (SNB-75): 19.5 µM (inactive)
- GI50 (UACC-257): 18.2 µM (inactive)
- GI50 (UO-31): 19.9 µM (inactive)
- GI50 (NCI-H460): 16.1 µM (inactive)
- GI50 (M19-MEL): 15.6 µM (inactive)
- GI50 (CAKI-1): 19.3 µM (inactive)
- GI50 (KM12): 14.4 µM (inactive)
- GI50 (MOLT-4): > 100 µM (inactive)
- GI50 (XF498): 18.3 µM (inactive)
- GI50 (HOP-18): 21.7 µM (inactive)
- GI50 (HCT-116): 12.9 µM (inactive)
- GI50 (DLD-1): 16.7 µM (inactive)
- GI50 (SF-268): 14.9 µM (inactive)
- GI50 (SNB-19): 18.9 µM (inactive)
- GI50 (OVCAR-3): 16.3 µM (inactive)
- GI50 (A549): 16 µM (inactive)
- GI50 (SF-539): 15.7 µM (inactive)
- GI50 (DMS-273): 19 µM (inactive)
- GI50 (SW-620): 16.6 µM (inactive)
- GI50 (Malme-3M): 18.2 µM (inactive)
- GI50 (HT-29): 15.7 µM (inactive)
- GI50 (SR): > 100 µM (inactive)
- GI50 (NCI-H522): 17.8 µM (inactive)
- GI50 (OVCAR-8): 17.2 µM (inactive)
- GI50 (OVCAR-4): 16.9 µM (inactive)
- GI50 (M14): 16.7 µM (inactive)
- GI50 (RPMI-8226): 3.45 µM (inactive)
- GI50 (HCC 2998): 18.6 µM (inactive)
- GI50 (EKVX): 24.7 µM (inactive)
- GI50 (OVCAR-5): 13.5 µM (inactive)
- GI50 (A498): 17.9 µM (inactive)
- GI50 (HOP-92): 20.9 µM (inactive)
- GI50 (IGROV-1): 19.4 µM (inactive)
- GI50 (SK-OV-3): 20.3 µM (inactive)
- GI50 (UACC-62): 14.3 µM (inactive)
- GI50 (K562): > 100 µM (inactive)
- GI50 (NCI-H23): 16.4 µM (inactive)
- GI50 (SF-295): 17.3 µM (inactive)
- GI50 (SK-MEL-2): 14.4 µM (inactive)
- GI50 (HCT-15): 14.6 µM
- GI50 (RXF 393): 14 µM (inactive)
- GI50 (SN12C): 17 µM (inactive)
- GI50 (DMS-114): 15.4 µM (inactive)
- GI50 (HOP-62): 20.1 µM (inactive)
- GI50 (CCRF-CEM): > 100 µM (inactive)
- GI50 (LOX IMVI): 15.3 µM (inactive)
- GI50 (KM-20L2): 19.6 µM (inactive)
- GI50 (COLO 205): 17 µM (inactive)

SMILES: COC1=C(C)C(=O)c2c(cc3c(c2O)C(C)(CCC=C(C)C)C(C)O3)C1=O (stereo unspecified)
- GI50 (TK-10): > 100 µM (inactive)
- GI50 (LXFL 529): > 100 µM (inactive)
- GI50 (SNB-78): > 100 µM (inactive)
- GI50 (SK-MEL-28): > 100 µM (inactive)
- GI50 (ACHN): > 100 µM (inactive)
- GI50 (U-251): > 44.6 µM (inactive)
- GI50 (NCI-H226): 17.6 µM (inactive)
- GI50 (HL-60): > 100 µM (inactive)
- GI50 (SK-MEL-5): 13.4 µM (inactive)
- GI50 (SNB-75): 19.9 µM (inactive)
- GI50 (UACC-257): > 72.9 µM (inactive)
- GI50 (UO-31): > 100 µM (inactive)
- GI50 (NCI-H460): 14.1 µM (inactive)
- GI50 (M19-MEL): 10.1 µM (inactive)
- GI50 (CAKI-1): > 100 µM (inactive)
- GI50 (KM12): > 55.7 µM (inactive)
- GI50 (MOLT-4): > 100 µM (inactive)
- GI50 (XF498): > 100 µM (inactive)
- GI50 (HOP-18): > 48.2 µM (inactive)
- GI50 (HCT-116): > 100 µM (inactive)
- GI50 (DLD-1): > 100 µM (inactive)
- GI50 (SF-268): > 100 µM (inactive)
- GI50 (SNB-19): 19.2 µM (inactive)
- GI50 (OVCAR-3): > 100 µM (inactive)
- GI50 (A549): 20 µM (inactive)
- GI50 (SF-539): > 100 µM (inactive)
- GI50 (DMS-273): > 57.1 µM (inactive)
- GI50 (SW-620): > 100 µM (inactive)
- GI50 (786-0): > 100 µM (inactive)
- GI50 (Malme-3M): > 76.4 µM (inactive)
- GI50 (HT-29): 37 µM (inactive)
- GI50 (SR): > 85.7 µM (inactive)
- GI50 (NCI-H522): > 100 µM (inactive)
- GI50 (OVCAR-8): > 100 µM (inactive)
- GI50 (OVCAR-4): > 100 µM (inactive)
- GI50 (M14): 23.4 µM (inactive)
- GI50 (RPMI-8226): > 100 µM (inactive)
- GI50 (HCC 2998): 42.1 µM (inactive)
- GI50 (EKVX): > 100 µM (inactive)
- GI50 (OVCAR-5): > 100 µM (inactive)
- GI50 (A498): 16.3 µM (inactive)
- GI50 (HOP-92): > 100 µM (inactive)
- GI50 (IGROV-1): > 100 µM (inactive)
- GI50 (SK-OV-3): > 100 µM (inactive)
- GI50 (UACC-62): 22.3 µM (inactive)
- GI50 (K562): > 54.8 µM (inactive)
- GI50 (NCI-H23): 9.71 µM (inactive)
- GI50 (SF-295): 20.3 µM (inactive)
- GI50 (SK-MEL-2): 30.2 µM (inactive)
- GI50 (HCT-15): 27.4 µM
- GI50 (RXF 393): > 100 µM (inactive)
- GI50 (SN12C): 33.5 µM (inactive)
- GI50 (DMS-114): > 100 µM (inactive)
- GI50 (HOP-62): 18.2 µM (inactive)
- GI50 (CCRF-CEM): > 100 µM (inactive)
- GI50 (LOX IMVI): 18.2 µM (inactive)
- GI50 (KM-20L2): > 100 µM (inactive)
- GI50 (COLO 205): > 100 µM (inactive)

— ChEMBL document CHEMBL1201862, “PubChem BioAssay data set” (2004)
